Here are results for 28 compounds from patent US8178530B2, “Imidazolopyrazine compounds useful for the treatment of degenerative and inflammatory diseases” (Janssen Pharmaceutica NV, priority 2006, dated 2012).

One assay has as its target T1, MAPKAPK5 (Homo sapiens, UniProt Q8IW41).
T1 construct: 1 mU MAPKAP-K5
T1 sequence (Q8IW41 1-473): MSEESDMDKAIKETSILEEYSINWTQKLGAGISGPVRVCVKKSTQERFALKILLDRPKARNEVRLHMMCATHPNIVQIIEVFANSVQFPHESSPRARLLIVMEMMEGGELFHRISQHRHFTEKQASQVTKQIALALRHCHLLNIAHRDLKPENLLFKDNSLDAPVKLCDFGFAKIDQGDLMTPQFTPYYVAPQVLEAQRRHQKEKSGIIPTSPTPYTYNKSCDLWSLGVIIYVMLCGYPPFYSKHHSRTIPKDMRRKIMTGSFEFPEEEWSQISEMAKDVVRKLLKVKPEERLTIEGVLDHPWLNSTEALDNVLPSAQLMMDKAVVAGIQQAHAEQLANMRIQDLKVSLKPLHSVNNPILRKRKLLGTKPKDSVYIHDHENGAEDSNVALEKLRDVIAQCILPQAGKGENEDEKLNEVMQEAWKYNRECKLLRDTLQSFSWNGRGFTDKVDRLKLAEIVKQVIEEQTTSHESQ
Description: MAPKAP-K5 assay (FlashPlate, 33P-ATP). Format: biochemical. To be noted: 0.6 μM ATP, 30 minutes at room temperature. How it is done:
3 μM MAPKAP-K5 peptide substrate

In assay [1] the test system is TNFα release by human PBMCs. Description: Cytokine release by LPS-stimulated human PBMCs (TNFα ELISA). Format: cell-based. Conditions: PBMC, LPS 1 μg/mL, 24 hr. How it is done: Human peripheral blood mononuclear cells (PBMCs) are isolated from “buffy coats” prepared from the blood of healthy volunteers, isolated essentially according to method of Bøyum (1984). In brief, buffy coat is diluted 1:1 with 1×PBS (Gibco) and 30 mL is carefully put on top of 20 mL Lymphoprep™ (Lucron Bioproducts) in 50 mL Falcon tubes. After centrifugation (35 min, 400 g, 18° C.) the mononuclear cells are collected from the white interphase and washed 3 times with 1×PBS by resuspending and centrifugation (10 min, 200 g). Isolated PBMCs are finally resuspended in RPMI 1640 (Cat. No. 21875, Gibco) that is supplemented with 10% heat-inactivated FBS (Hyclone).
For the assay PBMCs are seeded at 2.5E6 cells/mL in 160 μL in 96-well plates (Nunc). Serial dilution of the test compounds are made first in DMSO (Sigma) and then diluted 50-fold in M199 medium (Gibco) containing 1% heat-inactivated FBS. Compounds are further 1/10 diluted in the assay plates to obtain final DMSO concentration of 0.2%. Cells are preincubated with the compounds for 1 hr at 37° C., 5% CO2. Then, cells are stimulated with LPS (Escherichia coli serotype 026:B6, Cat. No. L2654, Sigma) that is added in a volume of 20 μL to a final concentration of 1 μg/mL and cells are further cultured for 24 hr. The plates are centrifuged and the supernatant is collected and stored at −80° C. until analysis of appropriate dilutions in ELISAs.
The following 384-well chemiluminescent ELISA protocol was developed to measure TNFα levels in the supernatant: White Lumitrac 600 384-well plates (Greiner) are coated with (40 μL/well) anti-TNFα capture antibody (Cat. No. 551220, BD Pharmingen) that is diluted to 1 μg/mL in 1×PBS (Gibco). After overnight incubation at 4° C., plates are washed with 1×PBS (80 g NaCl, 2 g KCl (Sigma), 11.5 g Na2HPO4.7H2O and 2 g KH2PO4 in 10 L milliQ; pH 7.4) and blocked with 100 μL/well buffer B (1×PBS containing 1% BSA (Sigma), 5% sucrose (Sigma) and 0.05% NaN3 (Sigma)). After 4 hr incubation at RT, blocking buffer is removed and plates are washed once with PBST (1×PBS with 0.05% Tween-20 (Sigma)). Then, 40 μL of sample is transferred to the ELISA plates and plates are incubated at 4° C. Next day, plates are washed 3 times (twice with PBST and once with PBS) and 35 μL/well biotinylated anti-TNFα antibody (Cat. No. 554511, BD Pharmingen) diluted first to a concentration of 250 ng/ml in buffer D (1×PBS with 1% BSA) is added. After 2 h of incubation at RT, plates are washed as described above and 35 μL/well of a 1/2000 dilution of streptavidin-HRP conjugate (Cat. No. SNN2004, Biosource) in buffer D is added. After 45 min, plates are washed as described above and incubated for 5 min with 50 μL/well BM Chemiluminescence ELISA Substrate POD (Roche). Readout is performed on the Luminoscan Ascent Luminometer (Labsystems) with an integration time of 100 msec delivering raw data (RLU: relative luminescence units). The following controls are included in the experiments, a maximal signal control, in which the cells are activated by LPS but only the 0.2% DMSO vehicle (and thus no compound) is added. This control indicates the maximal level of TNFα that can be achieved in the test. A minimal signal control is also included in these experiments. Here, cells are not triggered. This control returns the basal TNFα levels produced by the PBMCs. The percent inhibition (PIN) of the TNFα release, achieved by the compounds is then calculated based on the RLU data returned by the ELISA with following formula: 100−[((TNFα level compound X at concentration Y−minimal TNFα levels)/(maximal TNFα levels−minimal TNFα levels))×100]. Where compounds are tested at 8 concentrations (1/3 serial dilution), EC50-values can be calculated by curve fitting of the means of the PIN data achieved for a compound at each test concentration. […]

The structures appear in SMILES notation. pEC50, pIC50: −log10 of the molar value. A value given as a limit tells only on which side of the number the result lay.

As a reminder, the pIC50 is the negative decadic logarithm of the IC50, by convention in mol/L. A higher pIC50 goes with a low IC50. As usually defined, the pEC50 is the EC50 on a negative log10 scale, so that one unit is a factor of ten. High values mean a small EC50, low ones a large EC50. Compound `CN1CCN(c2ccc(Nc3ncc(-c4ccc(C(N)=O)nc4)n4ccnc34)cc2)CC1` [Compound 129, 5-{8-[4-(4-Methyl-piperazin-1-yl)-phenylamino]-imidazo[1,2-a]pyrazin-5-yl}-pyridine-2-carboxylic acid amide] had a pIC50 against MAPKAPK5 of less than 6.00. Also, the negative-log EC50 (pEC50) in assay [1] is less than 6.00.

In turn, `CNC(=O)c1ccc(-c2cnc(Nc3ccc(N4CCN(C)CC4)cc3)c3nccn23)cc1` [Compound 116] showed a pIC50 against MAPKAPK5 of less than 6.00. Further, in assay [1], the pEC50 is less than 6.00.

Take `Cc1[nH]ncc1-c1cnc(Nc2ccc(N3CCOCC3)cc2)c2nccn12` [Compound 176]: the pIC50 against MAPKAPK5 was 6.00 to 6.30. Besides, in assay [1], the pEC50 was less than 6.00.

On MAPKAPK5, `c1cn2c(-c3c[nH]cn3)cnc(Nc3ccc(N4CCOCC4)cc3)c2n1` [Compound 163] showed a negative logarithm of the IC50 (pIC50) of less than 6.00. In assay [1], this compound gave a pEC50 of less than 6.00.

In turn, `O=C1NCc2cc(-c3cnc(Nc4ccc(N5CCOCC5)cc4)c4nccn34)sc21` [Compound 198, 2-[8-(4-Morpholin-4-yl-phenylamino)-imidazo[1,2-a]pyrazin-5-yl]-4,5-dihydro-thieno[2,3-c]pyrrol-6-one] gave a pIC50 on MAPKAPK5 of 6.30 to 7.00. Further, the pEC50 in assay [1] was less than 6.00.

In the case of `NC(=O)c1ccc(-c2cnc(Nc3ccc(OCCN4CCOCC4)cc3)c3nccn23)cc1F` [Compound 146], the negative logarithm of the IC50 (pIC50) at MAPKAPK5 was less than 6.00. For the same compound, the pEC50 in assay [1] was less than 6.00.

On to `C[C@@H]1CN(C)[C@@H](C)CN1c1ccc(Nc2ncc(-c3ccc(C(N)=O)cc3)n3ccnc23)cc1` [Compound 137], for which the pIC50 at MAPKAPK5 was 6.30 to 7.00. The same compound had a pEC50 in assay [1] of less than 6.00.

`NC(=O)c1ccc(Nc2ncc(-c3cn[nH]c3)n3ccnc23)cc1` [Compound 11] had a pIC50 against MAPKAPK5 of 6.30 to 7.00. In addition, the pEC50 in assay [1] was less than 6.00.

Regarding `CN1CCC(Oc2ccc(Nc3ncc(-c4ccc(C(N)=O)c(F)c4)n4ccnc34)cc2)CC1` [Compound 149], on MAPKAPK5, the pIC50 was less than 6.00. This compound gave a pEC50 in assay [1] of less than 6.00.

`Cn1nnc(-c2ccc(Nc3ncc(-c4cn[nH]c4)n4ccnc34)cc2)n1` [Compound 169, [4-(2-Methyl-2H-tetrazol-5-yl)-phenyl]-[5-(1H-pyrazol-4-yl)-imidazo[1,2-a]pyrazin-8-yl]-amine] gave a pIC50 against MAPKAPK5 of less than 6.00. Further, the pEC50 in assay [1] is less than 6.00.

Turning to `CN(C)C(CNC(=O)c1ccc(Nc2ncc(-c3cc[nH]c(=O)c3)n3ccnc23)cc1)c1cccnc1` (centres unmarked) [Compound 114], at MAPKAPK5, the pIC50 is 6.30 to 7.00. In assay [1], this compound gave a pEC50 of less than 6.00.

Turning to `CCN(CC)CCNC(=O)c1ccc(Nc2ncc(-c3cn[nH]c3)n3ccnc23)cc1F` [Compound 82], at MAPKAPK5, the pIC50 was 6.00 to 6.30. Further, in assay [1], the pEC50 was less than 6.00.

`C[C@@H]1CN(c2ccc(Nc3ncc(-c4cc(F)c(C(N)=O)c(F)c4)n4ccnc34)cc2)[C@@H](C)CN1C` [Compound 181] had a pIC50 on MAPKAPK5 of 6.30 to 7.00. Further, the pEC50 in assay [1] was less than 6.00.

Regarding `CN1CCN(c2ccc(Nc3ncc(-c4ccc(C(N)=O)cc4)n4ccnc34)cc2F)CC1` [Compound 171, 4-{8-[3-Fluoro-4-(4-methyl-piperazin-1-yl)-phenylamino]-imidazo[1,2-a]pyrazin-5-yl}-benzamide], the negative logarithm of the IC50 (pIC50) on MAPKAPK5 was less than 6.00. The negative logarithm of the EC50 (pEC50) in assay [1] is less than 6.00.

`CN1CCC(NC(=O)c2ccc(Nc3ncc(-c4cn[nH]c4)n4ccnc34)cc2)C1` (centres unmarked) [Compound 64] had a pIC50 against MAPKAPK5 of 6.30 to 7.00. The compound also had a pEC50 in assay [1] of less than 6.00.

`CCN(CC)CCNC(=O)c1ccc(Nc2ncc(-c3cn[nH]c3)n3ccnc23)cc1` [Compound 32, N-(2-Diethylamino-ethyl)-4-[5-(1H-pyrazol-4-yl)-imidazo[1,2-a]pyrazin-8-ylamino]-benzamide] gave a pIC50 on MAPKAPK5 of 6.30 to 7.00. In assay [1], the pEC50 is less than 6.00.

Compound `C[C@@H]1CN(c2ccc(Nc3ncc(-c4csc(C(N)=O)c4)n4ccnc34)cc2)[C@@H](C)CN1C` [Compound 186] had a pIC50 against MAPKAPK5 of 6.30 to 7.00. In assay [1], this compound showed a pEC50 of less than 6.00.

At MAPKAPK5, `O=C(NCc1cccnc1)c1ccc(Nc2ncc(-c3cn[nH]c3)n3ccnc23)cc1` [Compound 35] showed a negative-log IC50 (pIC50) of 6.00 to 6.30. Further, the pEC50 in assay [1] is 6.00 to 6.30.

With `CN1CCN(c2ccc(Nc3ncc(-c4ccc(C(N)=O)o4)n4ccnc34)cc2)CC1` [Compound 139, 5-{8-[4-(4-Methyl-piperazin-1-yl)-phenylamino]-imidazo[1,2-a]pyrazin-5-yl}-furan-2-carboxylic acid amide], on MAPKAPK5, the pIC50 is less than 6.00. In assay [1], the pEC50 is less than 6.00.

On to `CC(C)N1CCN(c2ccc(Nc3ncc(-c4ccc(C(N)=O)cc4)n4ccnc34)cc2)CC1` [Compound 142], for which, on MAPKAPK5, the pIC50 is less than 6.00. This compound had a pEC50 in assay [1] of less than 6.00.

Take `O=C(NCCc1cccnc1)c1ccc(Nc2ncc(-c3cn[nH]c3)n3ccnc23)cc1` [Compound 93]: the pIC50 at MAPKAPK5 was 6.30 to 7.00. Moreover, in assay [1], the pEC50 was less than 6.00.

For the compound `Cc1cc(C(N)=O)ccc1-c1cnc(Nc2ccc(N3CCN(C)CC3)cc2)c2nccn12` [Compound 120], the pIC50 on MAPKAPK5 is less than 6.00. Besides, in assay [1], the pEC50 was less than 6.00.

As for `CC(C)N1CCN(c2ccc(Nc3ncc(-c4ccc5c(c4)CNC5=O)n4ccnc34)cc2)CC1` [Compound 205, 5-{8-[4-(4-Isopropyl-piperazin-1-yl)-phenylamino]-imidazo[1,2-a]pyrazin-5-yl}-2,3-dihydro-isoindol-1-one], the pIC50 at MAPKAPK5 was 7.00 to 9.00. The pEC50 in assay [1] is less than 6.00.

At MAPKAPK5, `CCNCCNC(=O)c1ccc(Nc2ncc(-c3cn[nH]c3)n3ccnc23)cc1` [Compound 56] had a pIC50 of 6.30 to 7.00. The pEC50 in assay [1] is less than 6.00.

Turning to `O=C(c1ccc(Nc2ncc(-c3cn[nH]c3)n3ccnc23)cc1)N1CCOCC1` [Compound 45], the pIC50 against MAPKAPK5 is 6.00 to 6.30. In assay [1], this compound gave a pEC50 of less than 6.00.

At MAPKAPK5, `C[C@@H]1CN(c2ccc(Nc3ncc(-c4cc(C(N)=O)co4)n4ccnc34)cc2)[C@@H](C)CN1C` [Compound 187] showed a pIC50 of 7.00 to 9.00. Also, in assay [1], the pEC50 was less than 6.00.

Compound `c1cn2c(-c3cn[nH]c3C3CC3)cnc(Nc3ccc(N4CCOCC4)cc3)c2n1` [Compound 160, [5-(5-Cyclopropyl-1H-pyrazol-4-yl)-imidazo[1,2-a]pyrazin-8-yl]-(4-morpholin-4-yl-phenyl)-amine] showed a pIC50 against MAPKAPK5 of 6.30 to 7.00. For the same compound, the pEC50 in assay [1] is less than 6.00.

Take `c1cn2c(-c3cn[nH]c3)cnc(Nc3ccc(OCCN4CCOCC4)cc3)c2n1` [Compound 150, [4-(2-Morpholin-4-yl-ethoxy)-phenyl]-[5-(1H-pyrazol-4-yl)-imidazo[1,2-a]pyrazin-8-yl]-amine]: the pIC50 on MAPKAPK5 is 6.00 to 6.30. In assay [1], this compound had a pEC50 of less than 6.00.
